In patent US11331299B2, “Medicinal use of serrulatane diterpenes” (The University of Sydney, priority 2016, dated 2022):
pEC50, pIC50: −log10 of the molar value. Like-named read-outs stand apart in the source and are kept apart here.

Test system: 280 human cancer cell lines
Experiment: OncoPanel cell proliferation assay (10-day)
Assay type: cell-based
Conditions: Homo sapiens; for GI50: read-out: Cell Count GI50; for pIC50: read-out: Cell Count IC50; for pEC50: read-out: Cell Count EC50
[1] = KHOS-240S, Soft Tissue - Osteosarcoma
[2] = ME-180, ME-180, Female GU - Ovary
[3] = MG-63, MG-63, Soft Tissue - Osteosarcoma
[4] = MHH-PREB-1, MHH-PREB-1, Leukemia
[5] = MIA PaCa-2, Mia PaCa-2, Pancreas
[6] = MS751, MS751, Female GU - Ovary
[7] = Malme-3M, MALME3M, Skin (Melanoma)
[8] = NCI-H292, NCI-H292, Lung - NSCLC
[9] = NCI-H295R, Endocrine - Adrenal gland
[10] = NCI-H441, NCIH441, Lung - NSCLC
[11] = NCI-H460, NCI-H460, Lung - NSCLC
[12] = NCI-H520, NCI-H520, Lung - NSCLC
[13] = NCI-H596, NCI-H596, Lung - NSCLC
[14] = NCI-H661, NCI-H661, Lung - NSCLC
[15] = NTERA-2-cl-D1, NTERA-2 cl.D1, Testis
[16] = OVCAR-3, OVCAR3, Female GU - Ovary
[17] = RPMI-7951, RPMI-7951, Skin (Melanoma)
[18] = SAOS-2, SaOS2, Soft Tissue - Osteosarcoma

## CC(C)=CCC[C@H](C)[C@@H]1CC[C@@H](C)c2c1cc(C)c(O)c2O [Compound 4, 7,8-dihydroxyserrulat-14-ene]
[1]
  GI50: 4.96 µM
  pIC50: 5.30
KLE, Female GU - Uterus
  pEC50: 4.74
  GI50: 16.6 µM
  pIC50: 4.74
KPL-1, KPL-1, Breast
  pEC50: 5.38
  GI50: 4.13 µM
  pIC50: 5.38
KU812, KU812, Leukemia
  pEC50: 5.02
  GI50: 9.13 µM
  pIC50: 5.02
L-428, L-428, Lymphoma
  pEC50: 5.68
  GI50: 2.06 µM
  pIC50: 5.68
LNCaP, Prostate
  pEC50: 4.94
  GI50: 12.4 µM
  pIC50: 4.89
LS-123, LS123, Colon
  pEC50: 4.92
  GI50: 10.7 µM
  pIC50: 4.92
LS-411N, LS411N, Colon
  pEC50: 4.64
  GI50: 22.6 µM
  pIC50: 4.64
LS-1034, LS1034, Colon
  pEC50: 4.63
  GI50: 23.5 µM
  pIC50: 4.63
M059J, CNS - Glioma
  pEC50: 4.89
  GI50: 12.9 µM
  pIC50: 4.89
MC116, MC116, Lymphoma
  pEC50: 4.90
  GI50: 12.4 µM
  pIC50: 4.90
MC-IXC, CNS - Neuroblastoma
  pEC50: 5.16
  GI50: 6.88 µM
  pIC50: 5.16
MCF7, MCF7, Breast
  pEC50: 4.92
  GI50: 11.9 µM
  pIC50: 4.92
MDA-MB-231, MDA MB 231, Breast
  pEC50: 4.94
  GI50: 11.3 µM
  pIC50: 4.94
MDA-MB-436, MDA-MB-436, Breast
  pEC50: 4.99
  GI50: 10.2 µM
  pIC50: 4.99
MDA-MB-453, MDA MB 453, Breast
  pEC50: 5.42
  GI50: 3.68 µM
  pIC50: 5.42
MDA-MB-468, MDA MB 468, Breast
  pEC50: 5.13
  GI50: 7.34 µM
  pIC50: 5.13
[2]
  pEC50: 4.60
  GI50: 25.2 µM
  pIC50: 4.60
MEG-01, MEG01, Leukemia
  pEC50: 5.08
  GI50: 8.37 µM
  pIC50: 5.08
MES-SA, Soft Tissue - Sarcoma
  pEC50: 5.19
  GI50: 6.44 µM
  pIC50: 5.19
[3]
  pEC50: 4.95
  GI50: 11.1 µM
  pIC50: 4.95
[4]
  pEC50: 5.24
  GI50: 5.71 µM
  pIC50: 5.24
[5]
  pEC50: 4.96
  GI50: 11 µM
  pIC50: 4.96
MOLT-3, MOLT-3, Leukemia
  pEC50: 5.50
  GI50: 3.13 µM
  pIC50: 5.50
MOLT-16, MOLT-16, Leukemia
  pEC50: 5.40
  GI50: 4.01 µM
  pIC50: 5.40
[6]
  pEC50: 4.92
  GI50: 12 µM
  pIC50: 4.92
MT-3, Colon
  pEC50: 4.62
  GI50: 23.8 µM
  pIC50: 4.62
MV4-11, MV-4-11, Leukemia
  pEC50: 5.42
  GI50: 3.8 µM
  pIC50: 5.42
MX1, Leukemia
  pEC50: 5.61
  GI50: 2.46 µM
  pIC50: 5.61
[7]
  pEC50: 4.69
  GI50: 17.8 µM
  pIC50: 4.69
MeWo, Skin (Melanoma)
  pEC50: 5.02
  GI50: 9.51 µM
  pIC50: 5.02
NALM-6, NALM-6, Leukemia
  pEC50: 5.58
  GI50: 2.61 µM
  pIC50: 5.58
NAMALWA, Lymphoma
  pEC50: 5.41
  GI50: 3.9 µM
  pIC50: 5.41
NCI-H69, NCI-H69, Lung - SCLC
  pEC50: 4.80
  GI50: 15.1 µM
  pIC50: 4.80
[8]
  pEC50: 5.04
  GI50: 9.19 µM
  pIC50: 5.04
[9]
  pEC50: 4.59
  GI50: 21.6 µM
  pIC50: 4.59
[10]
  pEC50: 5.32
  GI50: > 30 µM
  pIC50: < 4.52
NCI-H446, NCIH446, Lung - SCLC
  pEC50: 5.11
  GI50: 7.62 µM
  pIC50: 5.11
[11]
  pEC50: 4.91
  GI50: 13 µM
  pIC50: 4.89
NCI-H508, NCI-H508, Colon
  pEC50: < 4.52
  GI50: > 30 µM
  pIC50: < 4.52
[12]
  pEC50: 4.68
  GI50: 20.6 µM
  pIC50: 4.68
[13]
  pEC50: 4.55
  GI50: > 30 µM
  pIC50: < 4.52
[14]
  pEC50: 5.23
  GI50: 5.86 µM
  pIC50: 5.23
NCI-H747, NCI-H747, Colon
  pEC50: 4.55
  GI50: 28.1 µM
  pIC50: 4.55
[15]
  pEC50: 5.13
  GI50: 7.39 µM
  pIC50: 5.13
OCUG-1, OCUG-1, Liver
  pEC50: 4.81
  GI50: 15.5 µM
  pIC50: 4.81
OE19, OE19, Head and Neck
  pEC50: 4.68
  GI50: 20.5 µM
  pIC50: 4.68
OE21, OE21, Head and Neck
  pEC50: 4.90
  GI50: 12.7 µM
  pIC50: 4.90
[16]
  pEC50: 4.81
  GI50: 14.9 µM
  pIC50: 4.81
PA-1, Female GU - Ovary
  pEC50: 5.10
  GI50: 7.89 µM
  pIC50: 5.10
PANC-1, PANC-1, Pancreas
  pEC50: 4.93
  GI50: 11.6 µM
  pIC50: 4.93
PC-3, Prostate
  pEC50: 5.11
  GI50: 7.64 µM
  pIC50: 5.11
PFSK-1, PFSK-1, CNS - Glioma
  pEC50: 5.42
  GI50: 3.8 µM
  pIC50: 5.42
PSN1, PSN-1, Pancreas
  pEC50: 5.30
  GI50: 5.04 µM
  pIC50: 5.30
RD, Soft Tissue - Sarcoma
  pEC50: 5.28
  GI50: 5.17 µM
  pIC50: 5.28
RKO, Colon
  pEC50: 4.92
  GI50: 12 µM
  pIC50: 4.92
RKOE6, RKOE6, Colon
  pEC50: 5.17
  GI50: 6.76 µM
  pIC50: 5.17
RPMI-6666, RPMI 6666, Lymphoma
  pEC50: 4.64
  GI50: 23 µM
  pIC50: 4.64
[17]
  pEC50: 5.00
  GI50: 9.96 µM
  pIC50: 5.00
RPMI-8226, RPMI 8226, Myeloma
  pEC50: 5.52
  GI50: 3.03 µM
  pIC50: 5.52
RS4-11, RS4, 11, Leukemia
  pEC50: 5.38
  GI50: 4.16 µM
  pIC50: 5.37
Raji, Lymphoma
  pEC50: 5.41
  GI50: 3.92 µM
  pIC50: 5.41
Ramos, Ramos (RA 1), Lymphoma
  pEC50: 5.38
  GI50: 4.17 µM
  pIC50: 5.38
[18]
  pEC50: 4.97
  GI50: 10.7 µM
  pIC50: 4.97
SCC-4, SCC-4, Head and Neck
  pEC50: 4.80
  GI50: 15.5 µM
  pIC50: 4.80
SCC-9, SCC-9, Head and Neck
  pEC50: 4.78
  GI50: 16.4 µM
  pIC50: 4.78
SCC-25, SCC-25, Head and Neck
  pEC50: 4.60
  GI50: 25 µM
  pIC50: 4.60
SCaBER, Bladder
  pEC50: 4.77
  GI50: 16.8 µM
